Key:
Test in all cases: relative viability (nuclei count vs DMSO), 5 days (fraction); higher = more cells survive
Imatinib + Tozasertib = compound: Cc1ccc(NC(=O)c2ccc(CN3CCN(C)CC3)cc2)cc1Nc1nccc(-c2cccnc2)n1 [Imatinib] + Cc1cc(Nc2cc(N3CCN(C)CC3)nc(Sc3ccc(NC(=O)C4CC4)cc3)n2)n[nH]1 [Tozasertib] (partner 0.1 µM)
Summary of the method: (§1)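 Relative viability was taken as the ratio of nuclei in treated wells to nuclei in vehicle wells. Lung cancer cell lines in 1536-well plates received compounds by pin tool one day after seeding, either one drug alone or a fixed anchor-drug dose plus five library-drug doses (not always all listed) in √10 steps. Nuclei were counted on 4× images after 5 days of treatment, and values are medians of duplicate plates.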

Imatinib + Alpelisib = compound: Cc1ccc(NC(=O)c2ccc(CN3CCN(C)CC3)cc2)cc1Nc1nccc(-c2cccnc2)n1 [Imatinib] + Cc1nc(NC(=O)N2CCC[C@H]2C(N)=O)sc1-c1ccnc(C(C)(C)C(F)(F)F)c1 [Alpelisib] (partner 2 µM)
Summary of the method: as §1

Imatinib + Dasatinib = compound: Cc1ccc(NC(=O)c2ccc(CN3CCN(C)CC3)cc2)cc1Nc1nccc(-c2cccnc2)n1 [Imatinib] + Cc1nc(Nc2ncc(C(=O)Nc3c(C)cccc3Cl)s2)cc(N2CCN(CCO)CC2)n1 [Dasatinib] (partner 0.075 µM)
Summary of the method: as §1

Imatinib + Olaparib = compound: Cc1ccc(NC(=O)c2ccc(CN3CCN(C)CC3)cc2)cc1Nc1nccc(-c2cccnc2)n1 [Imatinib] + O=C(c1cc(Cc2n[nH]c(=O)c3ccccc23)ccc1F)N1CCN(C(=O)C2CC2)CC1 [Olaparib] (partner 8 µM)
Summary of the method: as §1

Cell Line | relative viability (Imatinib + Tozasertib; first compound 0.02 µM) | relative viability (Imatinib + Tozasertib; first compound 0.06325 µM) | relative viability (Imatinib + Tozasertib; first compound 0.2 µM) | relative viability (Imatinib + Tozasertib; first compound 0.6325 µM) | relative viability (Imatinib + Tozasertib; first compound 2 µM) | relative viability (Imatinib + Alpelisib; first compound 0.02 µM) | relative viability (Imatinib + Alpelisib; first compound 0.06325 µM) | relative viability (Imatinib + Alpelisib; first compound 0.2 µM) | relative viability (Imatinib + Alpelisib; first compound 0.6325 µM) | relative viability (Imatinib + Alpelisib; first compound 2 µM) | relative viability (Imatinib + Dasatinib; first compound 0.02 µM) | relative viability (Imatinib + Dasatinib; first compound 0.06325 µM) | relative viability (Imatinib + Dasatinib; first compound 0.2 µM) | relative viability (Imatinib + Dasatinib; first compound 0.6325 µM) | relative viability (Imatinib + Dasatinib; first compound 2 µM) | relative viability (Imatinib + Olaparib; first compound 0.02 µM) | relative viability (Imatinib + Olaparib; first compound 0.06325 µM) | relative viability (Imatinib + Olaparib; first compound 0.2 µM) | relative viability (Imatinib + Olaparib; first compound 0.6325 µM) | relative viability (Imatinib + Olaparib; first compound 2 µM)
NCI-H647 | 0.554 | 0.242 | 0.0832 | 0.28 | 0.321 | 1.25 | 1.4 | 1.6 | 1.13 | 1.11 | 0.198 | 0.183 | 0.142 | 0.181 | 0.148 | 0.803 | 0.67 | 0.792 | 0.588 | 0.495
LCLC-103H | 0.463 | 0.473 | 0.514 | 0.481 | 0.398 | 0.909 |  | 0.9 | 0.851 |  | 0.637 | 0.436 | 0.471 | 0.471 | 0.388 | 0.776 | 0.773 | 0.834 | 0.694 | 
NCI-H1975 | 0.976 | 0.774 | 0.493 | 0.255 | 0.188 | 0.61 | 0.721 | 0.775 | 0.621 | 0.553 | 0.426 | 0.262 | 0.38 | 0.371 | 0.259 | 0.756 | 0.815 | 0.947 | 0.803 | 0.712
EPLC-272H | 0.366 |  | 0.256 | 0.258 | 0.207 | 1.04 |  | 0.987 | 1.03 | 0.843 | 0.393 |  | 0.367 | 0.311 | 0.289 | 0.669 |  |  | 0.795 | 0.732
NCI-H520 | 0.474 | 0.509 | 0.366 | 0.424 |  | 0.645 | 1.15 | 1.07 | 0.842 | 0.912 | 0.158 | 0.213 | 0.206 | 0.186 | 0.169 | 0.368 | 0.356 | 0.305 | 0.301 | 0.371
NCI-H1734 | 0.243 | 0.268 | 0.278 | 0.259 | 0.264 | 0.749 |  | 0.769 | 0.699 |  | 0.478 | 0.457 | 0.45 | 0.442 | 0.427 | 0.621 |  | 0.605 | 0.648 | 0.639
NCI-H1755 | 0.612 | 0.585 | 0.592 | 0.609 | 0.516 | 1.09 | 1.04 | 1.13 | 0.949 | 0.981 | 0.415 | 0.392 | 0.41 | 0.422 | 0.408 | 0.946 | 0.848 | 0.968 | 0.881 | 0.85
NCI-H2087 | 0.247 |  | 0.206 | 0.202 | 0.183 | 0.975 | 1.19 | 1.23 | 0.96 | 1.05 | 0.817 |  | 0.949 | 0.89 |  | 0.63 |  | 0.619 | 0.595 | 
EMC-BAC-2 | 0.297 | 0.296 | 0.33 | 0.283 | 0.277 | 0.823 | 0.81 | 0.877 | 0.788 | 0.844 | 0.337 | 0.349 | 0.322 | 0.327 | 0.308 | 0.465 | 0.551 | 0.474 | 0.592 | 0.486
NCI-H2170 | 0.872 | 0.872 | 0.752 | 0.585 | 0.712 | 0.954 | 0.931 | 0.846 | 0.789 | 0.797 | 0.636 | 0.582 | 0.477 | 0.48 | 0.411 | 0.635 | 0.585 | 0.663 | 0.69 | 0.578
NCI-H23 | 0.441 | 0.37 | 0.322 | 0.285 | 0.269 | 0.751 |  | 0.866 | 0.731 | 0.58 | 1.06 | 0.688 | 0.694 | 0.78 | 0.972 | 0.384 | 0.287 | 0.32 | 0.376 | 0.32
HCC-366 | 0.193 |  | 0.109 | 0.0574 | 0.0718 | 0.543 |  | 0.431 | 0.362 | 0.35 | 0.805 |  | 0.822 | 0.648 | 0.584 | 0.427 | 0.336 | 0.389 | 0.335 | 0.346
HCC-827 | 0.404 | 0.486 | 0.407 | 0.407 | 0.421 | 0.987 | 0.861 | 1.05 |  | 1.01 | 0.287 | 0.269 | 0.239 | 0.151 | 0.272 | 0.741 | 0.724 | 0.762 | 0.639 | 0.628
NCI-H1915 | 0.468 |  | 0.458 | 0.385 | 0.341 | 1.07 |  | 1.09 | 1.05 | 0.966 | 0.298 |  | 0.368 | 0.312 | 0.305 | 0.237 |  | 0.253 | 0.26 | 0.234
NCI-H1437 | 0.449 | 0.453 | 0.411 | 0.408 | 0.373 | 1.13 | 1.16 | 1.02 | 0.981 | 0.94 | 0.444 | 0.309 | 0.409 | 0.25 | 0.334 | 0.692 | 0.703 | 0.719 | 0.686 | 0.604
CAL-12T | 0.369 |  | 0.311 | 0.293 | 0.225 | 1.47 | 1.62 | 1.42 | 1.17 | 1.14 | 0.625 |  | 0.612 | 0.503 | 0.51 | 0.756 |  | 0.735 | 0.634 | 0.77
HOP-62 | 0.431 |  | 0.356 | 0.353 | 0.326 | 1.13 |  | 0.758 |  | 0.934 | 0.726 |  | 0.642 | 0.576 | 0.54 | 0.408 | 0.478 | 0.456 | 0.498 | 0.372
ABC-1 | 0.211 |  | 0.221 | 0.185 | 0.141 | 1.1 |  | 1.35 | 1.13 | 0.888 | 0.624 |  | 0.689 | 0.522 | 0.523 | 1 |  | 0.732 | 0.785 | 0.581
